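Compound exposure: 48 hours, 5 concentrations, 96-well plates. GI50 = concentration required for 50% inhibition of growth. Definition used: TGI = concentration required for complete inhibition of growth.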

Test in all cases: growth of human tumour cells (NCI), 48 h
Assay [1] relates to HT29 colon.
The subject of assay [2] is NCI-H23 lung.
Assay [3] deals with CAKI-1 renal.
For assay [4], the system named is IGROV1 ovarian.
Assay [5] relates to OVCAR-8 ovarian.
Assay [6] has as its system SNB-19 CNS.
Assay [7] has as its system SF-539 CNS.
The test system of assay [8] is MCF7 breast.
The test system of assay [9] is MDA-MB-435.
The test system of assay [10] is MDA-MB-231 breast.

For `N#C/C(=C\c1cc(OCc2ccccc2)c(OCc2ccccc2)cn1)C(N)=O`, the TGI in assay [1], in assay [2], in assay [3], in [4], in assay [5] and in assay [6] was more than 100 µM throughout. Also, in assay [7], the TGI was more than 100 µM.

As to `O=C1NC2=C(CCCCC/C2=N\O)C12CCCCCC2`, the TGI in assay [1], in assay [2], in assay [3], in assay [4], in assay [5] and in assay [6] was more than 100 µM in each case. The compound further came in with a TGI in assay [7] of more than 100 µM.

For the compound `C[C@]12Cc3cn[nH]c3C(=O)C1CC[C@@H]1C2CC[C@@]2(C)C1CC[C@@H]2O` (some centres not stated), the TGI in [1], in [2], in assay [3], in [4], in [5] and in assay [6] was more than 100 µM throughout. The same compound registered a TGI in assay [7] of more than 100 µM.

As to `O=[N+]([O-])c1ccc(Cl)c2c([N+](=O)[O-])cccc12`, the TGI was more than 10 µM in [1]; more than 10 µM in assay [8]; more than 10 µM in assay [2]; 9.61 µM in assay [9]; more than 10 µM in assay [4]; more than 10 µM in assay [5]. Also, the TGI in assay [6] is more than 10 µM; in assay [7], 5.91 µM.

Consider `CCc1cccc(C)c1NC(=O)CCc1nc(=S)[nH][nH]1`, for which the TGI in [1], in assay [2], in assay [3], in [4], in [5] and in assay [6] was more than 100 µM in each case. This compound also registered a TGI in [7] of more than 100 µM.

Take `CCCCCCCCCCCC[N+]1(CCCCCCCCCCCC)CCCC(C)C1` (configuration not stated): the GI50 is 0.186 µM in [1], 0.257 µM in [8], 0.113 µM in [2] and 0.277 µM in [9]. Further, the TGI is 1.09 µM in [1]; 1.2 µM in [8]; 0.399 µM in assay [2]; 1.09 µM in assay [9]; 1.92 µM in assay [3].

Take `Cc1ccc2c(c1)CN1c3ccc(C)cc3CN2C1c1ccccc1O`: the TGI in [1], in [2], in assay [3], in assay [4], in [5] and in [7] was more than 100 µM in each case.

As for `COc1cc(CNc2nc3cc(N)cc(N)c3nc2-c2ccccc2)cc(OC)c1`, the GI50 in [1] is 8.17 µM; in assay [8], 8.34 µM; in assay [2], 16.2 µM; in assay [10], 2.08 µM; in assay [3] it was 16 µM; in [4], 8.62 µM. Also, the GI50 was 2.8 µM in assay [5], 23.4 µM in assay [6] and 5.29 µM in [7]. Further, the TGI in assay [1] was 44.4 µM; in assay [8], more than 100 µM; in [2], more than 100 µM; in assay [10], 6.09 µM; in [3], more than 100 µM; in assay [4] it was 55.7 µM. The values for the TGI in assay [5], in assay [6] and in assay [7] were 8.1 µM, more than 100 µM and 21.4 µM, respectively.

For `Cc1nc(N)nc(CCC(=O)Nc2cccc(C(F)(F)F)c2)c1-c1ccc(Cl)cc1`, the TGI in assay [1], in assay [2], in assay [3], in assay [4], in assay [5] and in assay [6] was more than 100 µM throughout. In assay [7], this compound had a TGI of more than 100 µM.

`N#CC(C(=O)C(=O)Nc1c(Cl)cccc1Cl)c1ccccc1` (configuration not stated): the GI50 in assay [1], in [2], in assay [3], in assay [4], in [6] and in [7] was more than 100 µM in each case. Moreover, the TGI in assay [1], in assay [2], in [3], in assay [4], in assay [5] and in [6] was more than 100 µM in each case. For the same compound, in assay [7], the TGI was more than 100 µM.

Take `Cc1ccc(S(=O)(=O)OCC/C(=C\[Si](C)(C)C)c2ccccc2)cc1`: the TGI in [1], in assay [2], in [3], in assay [4], in assay [5] and in [6] was more than 100 µM throughout. In assay [7], this compound registered a TGI of more than 100 µM.

For `COc1cc([C@@H]2c3cc4c(cc3[C@@H](NC(=O)c3ccc(C#N)cc3)C3COC(=O)[C@@H]32)OCO4)cc(OC)c1O` (some centres not stated), the TGI stood at 4.23 µM in assay [1]; 0.837 µM in assay [2]; 13.2 µM in [3]; 5.13 µM in assay [4]; 6.38 µM in assay [5]; 4.65 µM in [6]. This compound also returned a TGI in assay [7] of 1.66 µM.

Regarding `OCc1cc2c(cn1)[nH]c1ccc(NCc3ccccc3)cc12`, the TGI in assay [1] is 32.2 µM; in assay [2], more than 100 µM; in assay [3], more than 100 µM; in assay [4] it was more than 100 µM; in assay [5] it was more than 100 µM; in [6], more than 100 µM. Further, the TGI in [7] is more than 100 µM.

For `COC(=O)C1C(C(=O)OC)C2C(=O)C3C(C(=O)OC)C(C(=O)OC)C3C(=O)C12` (configuration not stated), the TGI in [1], in [2], in assay [3], in assay [4], in [5] and in assay [6] was more than 100 µM each time. This compound returned a TGI in assay [7] of more than 100 µM.

For the origin of these results see PubChem BioAssay (NCI).
